# Assay results from the C3SDB collision cross section collection.
# Values joined by “and” are separate entries in the source; they are usually repeats but may differ in a detail not shown here. Identical values can stand only once.
# Assays:
# [1] = instrument: DT, single field, calibrated with Agilent tune mix (Agilent)
# [2] = instrument: TW, calibrated with polyalanine and drug standards
# [3] = instrument: DT, single field, calibrated with ESI Low Concentration Tuning Mix (Agilent)
SMILES,collision cross section (N2) ([1]; [M+H]+) [Å²],collision cross section (N2) ([1]; [M-H]-),further results
"Cn1c(=O)[nH]c2[nH]c(=O)n(C)c2c1=O [1,7-Dimethyluric acid]",–,134.06 Å²,–
C[n+]1cccc(C(N)=O)c1 [1-Methylnicotinamide],–,–,collision cross section (N2) ([1]; [M]+): 126.4 Å²
Nc1ccn([C@H]2C[C@H](O)[C@@H](COP(=O)(O)OP(=O)(O)O)O2)c(=O)n1 [2'-Deoxycytidine diphosphate],–,170.97 Å²,collision cross section (N2) ([1]; [M+Na]+): 174.5 Å²
Nc1nc(=O)c2ncn([C@H]3C[C@H](O)[C@@H](COP(=O)(O)O)O3)c2[nH]1 [2'-Deoxyguanosine 5'-monophosphate],–,–,collision cross section (N2) ([1]; [M+Na-2H]-): 167.93 Å²; collision cross section (N2) ([1]; [M+Na]+): 169.7 Å²
O=c1nc[nH]c2c1ncn2[C@H]1C[C@H](O)[C@@H](COP(=O)(O)O)O1 [2'-Deoxyinosine 5'-monophosphate],–,–,collision cross section (N2) ([1]; [M+Na-2H]-): 161.59 Å²; collision cross section (N2) ([1]; [M+Na]+): 166.8 Å²
CO[C@@H]1[C@H](O)[C@@H](CO)O[C@H]1n1cnc2c(N)ncnc21 [2'-O-methyladenosine],–,158.37 Å²,collision cross section (N2) ([1]; [M+Na]+): 168.7 Å²
O=C(O)CNC(=O)c1ccco1 [2-Furoylglycine],–,134.65 Å²,–
Nc1[nH]c(=O)nc2nc[nH]c12 [2-Hydroxyadenine],127,121.04 Å²,–
CO[C@H]1[C@@H](O)[C@H](n2cnc3c(=O)nc(N)[nH]c32)O[C@@H]1CO [3'-O-methylguanosine],–,163.78 Å²,collision cross section (N2) ([1]; [M+Na]+): 178.1 Å²
"O=C(O)c1ccc([O-])c(O)c1 [3,4-Dihydroxybenzoate]",–,120.45 Å²,–
"Cn1c(=O)[nH]c(=O)c2c1[nH]c(=O)n2C [3,7-Dimethyluric acid]",–,133.95 Å²,–
O=C(O)CCc1cccc(O)c1 [3-(3-Hydroxyphenyl)propanoic acid],–,136.11 Å²,–
Nc1c(O)cccc1C(=O)C[C@H](N)C(=O)O [3-Hydroxy-L-kynurenine],–,–,collision cross section (N2) ([1]; [M+H-H2O]+): 137.5 Å²
O=C(O)c1cccc([O-])c1 [3-Hydroxybenzoate],–,125.4 Å²,–
Cn1c(=O)ccn([C@@H]2O[C@H](CO)[C@@H](O)[C@H]2O)c1=O [3-Methyluridine],–,166.84 Å²,collision cross section (N2) ([1]; [M+Na]+): 164.2 Å²
Cn1c(=O)[nH]c(=O)c2[nH]cnc21 [3-Methylxanthine],–,124.48 Å²,–
Nc1ccc(C(=O)[O-])cc1 [4-Aminobenzoate],140.4,–,–
COc1ccc(/C=C/C(=O)O)cc1 [4-Methoxycinnamic acid],140.8,146.28 Å²,–
NC(=O)c1ncn([C@@H]2O[C@H](COP(=O)(O)O)[C@@H](O)[C@H]2O)c1N [5'-Phosphoribosyl-5-amino-4-imidazolecarboxamide],171.6,167.62 Å²,–
COc1ccc2[nH]cc(CCN)c2c1 [5-Methoxytryptamine],–,141.18 Å²,–
O=P(O)(O)OC[C@H]1O[C@H](OP(=O)(O)OP(=O)(O)O)[C@H](O)[C@@H]1O [5-Phospho-alpha-D-ribose 1-diphosphate],–,–,collision cross section (N2) ([1]; [M+Na-2H]-): 161.1 Å²
"C[C@]12CCC(=O)C[C@@H]1CC[C@@H]1[C@@H]2CC[C@]2(C)C(=O)CC[C@@H]12 [5alpha-Androstane-3,17-dione]",180.6,174.32 Å²,–

SMILES,collision cross section (N2) ([1]; [M+H]+) [Å²],collision cross section (N2) ([1]; [M-H]-),further results
Cn1c[n+]([C@@H]2O[C@H](CO)[C@@H](O)[C@H]2O)c2[nH]c(N)nc(=O)c21 [7-Methylguanosine],–,–,collision cross section (N2) ([1]; [M]+): 166.5 Å²
Cn1cnc2[nH]c(=O)[nH]c(=O)c21 [7-Methylxanthine],130.8,128.75 Å²,–
O=C(O)CCCCCCCCCCCCCCCO [16-Hydroxypalmitic acid],–,168.99 Å²,collision cross section (N2) ([1]; [M+Na]+): 178.2 Å²
CC(=O)[C@@]1(O)CC[C@H]2[C@@H]3CCC4=CC(=O)CC[C@]4(C)[C@H]3CC[C@@]21C [17alpha-Hydroxyprogesterone],183.4,183.75 Å²,–
Nc1ncnc2c1ncn2[C@@H]1O[C@H](COP(=O)(O)OP(=O)(O)O[C@H]2O[C@H](CO)[C@@H](O)[C@H](O)[C@H]2O)[C@@H](O)[C@H]1O [ADP-glucose],214.5,–,–
"Nc1ncnc2c1ncn2[C@@H]1O[C@H](COP(=O)(O)O)[C@@H](OP(=O)(O)O)[C@H]1O [Adenosine 3',5'-diphosphate]",182.5,–,collision cross section (N2) ([1]; [M-H2O-H]-): 179.49 Å²
Nc1ncnc2c1ncn2[C@@H]1O[C@H](CO)[C@@H](OP(=O)(O)O)[C@H]1O [Adenosine 3'-monophosphate],–,171.18 Å²,–
O=C(O)CC(Nc1ncnc2c1ncn2[C@@H]1O[C@H](COP(=O)(O)O)[C@@H](O)[C@H]1O)C(=O)O (stereo partly drawn) [Adenylsuccinic acid],–,183.19 Å²,collision cross section (N2) ([1]; [M+Na]+): 195.6 Å²
CC1=C(/C=C/C(C)=C/C=C/C(C)=C/C(=O)O)C(C)(C)CCC1 [All-trans-retinoic acid],–,203.42 Å²,–
NC(=O)NC(NC(N)=O)C(=O)O [Allantoic acid],–,–,collision cross section (N2) ([1]; [M+Na]+): 143 Å²
Nc1ccc(C(=O)NCC(=O)O)cc1 [Aminohippuric acid],–,147.55 Å²,collision cross section (N2) ([1]; [M+Na]+): 153.7 Å²
OC[C@H]1O[C@@H](Oc2ccc(O)cc2)[C@H](O)[C@@H](O)[C@@H]1O [Arbutin],–,–,collision cross section (N2) ([1]; [M+Na-2H]-): 159.52 Å²; collision cross section (N2) ([1]; [M+Na]+): 166.6 Å²
CCCCCCCCCCCCCCCCCC(=O)OC[C@H](O)[C@H]1OC(=O)C(O)=C1O [Ascorbyl stearate],–,207.62 Å²,–
C[C@@H](O)[C@@H](O)c1cnc2[nH]c(N)nc(=O)c2n1 [Biopterin],153.5,148.31 Å²,–
CCCCCCCC(=O)O [Caprylic acid],–,139.46 Å²,–
C[C@H](CCC(=O)O)[C@H]1CC[C@H]2[C@@H]3[C@H](O)C[C@@H]4C[C@H](O)CC[C@]4(C)[C@H]3CC[C@]12C [Chenodeoxycholate],–,201.51 Å²,–
NCCP(=O)(O)O [Ciliatine],128.7,118.25 Å²,–
O=C(O)CC(O)(CC(=O)O)C(=O)O [Citrate],–,–,collision cross section (N2) ([1]; [M+Na]+): 142.4 Å²
NC(=O)CCCCC1CCSS1 (stereo not drawn) [LIPOAMIDE],–,–,collision cross section (N2) ([2]; [M+H]+): 139.3 Å²; collision cross section (N2) ([3]; [M+Na]+): 150.4 Å²
CC(=O)N1CCC[C@H]1C(=O)O [N-ACETYLPROLINE],–,–,collision cross section (N2) ([2]; [M+Na]+): 136.9 Å²; collision cross section (N2) ([3]; [M+Na]+): 140.3 Å²; collision cross section (N2) ([3]; [M-H]-): 133.7 Å²
C[n+]1cccc(C(=O)[O-])c1 [TRIGONELLINE],–,–,collision cross section (N2) ([2]; [M+H]+): 122.4 Å²; collision cross section (N2) ([3]; [M+H]+): 124 Å²; collision cross section (N2) ([3]; [M+Na]+): 135.9 Å²

# Now from value to compound, other results behind:
collision cross section (N2) ([1]; [M+H]+) [Å²],collision cross section (N2) ([1]; [M-H]-),SMILES,further results
141.4,134.25 Å²,NC(Cc1ccccc1O)C(=O)O (racemic) [DL-O-tyrosine],–
–,134.48 Å²,CC(=O)[C@@H](O)[C@H](O)COP(=O)(O)O [1-Deoxy-D-xylulose 5-phosphate],collision cross section (N2) ([1]; [M+Na]+): 144.9 Å²
–,118.65 Å²,CC(C)C(O)C(=O)O (stereo not drawn) [2-Hydroxy-3-methylbutyric acid],–
–,128.12 Å²,CC(C)C(O)(CC(=O)O)C(=O)O (stereo not drawn) [2-Isopropylmalic acid],collision cross section (N2) ([1]; [M+Na]+): 140.9 Å²
–,123.84 Å²,CC(CCC(=O)O)C(=O)O (stereo not drawn) [2-Methylglutaric acid],–
–,127.46 Å²,CC(C)[C@H](C(=O)O)[C@@H](O)C(=O)O [3-Isopropylmalate],–
134.1,134.37 Å²,Cn1cncc1C[C@H](N)C(=O)O [3-Methylhistidine],–
–,125.8 Å²,CC(O)CCCC(=O)O (stereo not drawn) [5-Hydroxyhexanoic acid],–
–,149.2 Å²,NC(Cc1c[nH]c2ccc(O)cc12)C(=O)O (stereo not drawn) [5-Hydroxytryptophan],collision cross section (N2) ([1]; [M+Na]+): 152.2 Å²
193.6,196.42 Å²,"Nc1nc(=O)c2c([nH]1)NCC(CNc1ccc(C(=O)N[C@@H](CCC(=O)O)C(=O)O)cc1)=N2 [7,8-Dihydrofolate]",–
–,118.99 Å² and 119.14 Å²,O=C(O)CC[C@H](O)C(=O)O [(S)-2-Hydroxyglutarate],–
146.7,–,NC(CSCC[C@H](N)C(=O)O)C(=O)O (stereo partly drawn) [Allocystathionine],–
158.7,162.82 Å²,NC(=O)CC[C@H](NC(=O)Cc1ccccc1)C(=O)O [Alpha-N-Phenylacetyl-L-glutamine],–
163.9,–,NC(=NCCC[C@H](N)C(=O)O)N[C@@H](CC(=O)O)C(=O)O [Argininosuccinic acid],collision cross section (N2) ([1]; [M+Na-2H]-): 159.57 Å²
–,137.38 Å²,O=C(O)CCCCCCCC(=O)O [Azelaic acid],–
186.8,–,N[C@@H](CCCCNC(=O)CCCC[C@@H]1SC[C@@H]2NC(=O)N[C@@H]21)C(=O)O [Biocytin],collision cross section (N2) ([1]; [M+Na-2H]-): 189.78 Å²
–,128.54 Å²,CCCCCC(=O)O [Caproic acid],–
